Laboratory results: article PMC9260506, “Identification of Highly Cross-Reactive Mimotopes for a Public T Cell Response in Murine Melanoma” (Frontiers in Immunology, 2022)

How the values were obtained:
[1] = target: p15E peptide presented by H-2K^b, refolded pMHC (mouse | human | murine leukemia virus); assay: SPR
[2] = target: 7PPG4 TCR, recombinant soluble (mouse) (UniProt P01849); assay: SPR; details: peptide-MHC
[3] = target: 7PPG2 TCR, recombinant soluble (mouse) (UniProt P01849); assay: SPR; details: peptide-MHC
7PPG4 TCR = assay: Steady-state surface plasmon resonance, pMHC on immobilized 7PPG4 TCR; assay type: binding, mouse; details: Figure 5C
From the text: Recombinant soluble TCRs used for yeast library selections and surface plasmon resonance experiments were produced using a baculovirus expression system in Hi5 insect cells. TCR alpha chain extracellular domain sequences were cloned into pAcGP67a vector containing a 3C protease site ([…]) followed by an acidic leucine zipper, AviTag biotinylation site ([…]), and poly-histidine tag (6×His). TCR beta chain extracellular domain sequences were cloned into pAcGP67a vector containing a 3C site followed by a basic leucine zipper and poly-histidine tag. 2 μg of each plasmid was transfected into SF9 insect cells with BestBac 2.0 linearized baculovirus DNA (Expression Systems) using Cellfectin II reagent (Invitrogen). SF9s were then infected with 1:1000 primary transfection supernatant to amplify the virus. Titration of alpha and beta chain viruses was performed to identify the optimal ratio of the two viruses for heterodimer formation. Protein was then produced by large scale infection of Hi5 cells as previously described ([10]). Briefly, secreted protein was purified using HisPur Ni-NTA resin (Thermo) for immobilized metal affinity chromatography (IMAC) and biotinylated overnight at 4°C using biotin (Avidity), ATP, and BirA ligase. […] Biotinylation efficiency was assessed by adding streptavidin (ThermoFisher) to ~2 ug of protein and running an SDS-PAGE gel. […]

CD8^+ T cells = assay: Intracellular cytokine staining of peripheral blood after vaccination; assay type: in vivo, C57BL/6 mice; details: for CD8^+ T cell reactivity to p15E stimulation (ICS): Figure 7C
From the text: MSA and TTR long peptide fusions were produced in house by the Wittrup lab as previously described ([23]). Long peptide-amphiphile fusion vaccines were obtained from Northwestern University Peptide Synthesis Core (p15E and mimotopes) or produced in house by the Irvine lab as previously described (OVA amph) ([16], [22]). Lipo-CpG was produced in house by the Irvine lab as previously described ([16], [22]). […] Mice were primed and then boosted at 2 and 4 weeks following prime (n=5 per group).
One week following each vaccine boost, blood samples were drawn retro-orbitally from each mouse. 50-80 μL was used per well for stimulation with peptide, and excess blood from each group was pooled and used for a positive and negative control well per group. Red blood cells were lysed with ACK lysis buffer (Thermo), and then cells were washed once with FACS buffer. In 100 μL/well RPMI complete media, sample wells were stimulated with 10 μg/mL peptide (p15E, 7PPG2-mim6, or 7PPG4-mim2), and positive control wells were stimulated with 10 ng/mL PMA and 10 μg/mL ionomycin. Cells were stimulated for two hours before 1 uL/well brefeldin A (BD GolgiPlug) was added, and then cells were incubated for an additional four hours. Cells were washed twice with cold PBS and then stained with Zombie Aqua 1:1000 and Fc block 1:100 in 100 μL/well PBS for 15 minutes at room temperature. Cells were then stained with CD8 APC 1:100 in 100 μL/well FACS buffer for 20 minutes at room temperature. Cells were fixed and permeabilized using 100 μL/well of CytoFix/CytoPerm solution (BD) for 20 minutes at 4°C. Following two washes with Perm/Wash buffer (BD), cells were stained with IFN-γ PE and TNF-α AF488 1:75 each in 50 μL/well Perm/Wash buffer for 30 minutes at 4°C. Following two washes with FACS buffer, samples were run on an LSR II (BD) or Cytoflex (Beckman Coulter) and data analyzed in FlowJo v10. Outliers were identified using the ROUT method with Q = 1% (GraphPad Prism 9).

B16F10 melanoma cells = assay: Prophylactic vaccination and B16F10 tumor challenge; assay type: in vivo, C57BL/6 mice
Method: (§1) MSA and TTR long peptide fusions were produced in house by the Wittrup lab as previously described ([23]). Long peptide-amphiphile fusion vaccines were obtained from Northwestern University Peptide Synthesis Core (p15E and mimotopes) or produced in house by the Irvine lab as previously described (OVA amph) ([16], [22]). Lipo-CpG was produced in house by the Irvine lab as previously described ([16], [22]). 5 nmol of vaccine and 1.24 nmol of lipo-CpG per injection were used in a volume of 100 μL PBS, sterile filtered, and injected subcutaneously at the tail base, 50 μL per side, using 31G insulin syringes. Mice were primed and then boosted at 2 and 4 weeks following prime (n=5 per group).
Two weeks after the second vaccine boost, 10^5 B16F10 cells in 100 μL PBS were injected subcutaneously on the right flank using 29G insulin syringes. Tumor areas were calculated by multiplying length and width taken by caliper measurement every other day beginning three days post-tumor inoculation. Mice were euthanized when tumor area exceeded 100 mm^2.

[4] = tested on: 7PPG4-transduced 58^-/- T cells; assay: T cell activation, peptide-loaded DC2.4 co-culture, IL-2 ELISA (7PPG4); assay type: cell-based, murine; details: DC2.4 cells loaded with various peptide concentrations 2-3 h, 24 h co-culture
Method: (§2) T cell line generation: For creation of T cell lines, TCR alpha chain was linked to TCR beta chain by a P2A sequence, followed by EGFP fluorescent protein sequence, in the MP71 retroviral vector. 80% confluent HEK293-T cells were transfected with 2 μg of TCR plasmid and 1 μg pCL-Eco helper plasmid with 6 μg (3× DNA mass) PEI (Santa Cruz Biotech) to create retrovirus. 2 days later, the supernatant was then used to transduce CD8^+ 58^-/^- cells with 0.8 μg/mL polybrene (Santa Cruz Biotech). Cells were spinfected at 1000×g and 32°C for 1.5 hours. 2 days later, transduction was assessed by expression of EGFP and by staining with an antibody against murine TCR β chain. If necessary, cells were sorted on EGFP on a FACSAria (BD) to obtain a >95% transduced population.
(§3) DC co-culture: 25,000 DC2.4 cells per well were incubated with various concentrations of peptide in 100 μL RPMI complete media for 2-3 hours before the addition of T cells. 25,000 T cells per well were added in 100 μL RPMI complete media in 96 well plates.
(§4) After 24 hours, plates were spun down at 500×g for 5 minutes, and 2×100 μL samples of supernatant were saved and frozen at -80°C. T cell activation was assessed using mouse IL-2 ELISA kits (Invitrogen), with samples diluted 1:2 - 1:20 for comparison to the standard curve. Absorbance values were measured with a Tecan Infinite m200 Pro plate reader.

[5] = tested on: 7PPG2-transduced 58^-/- T cells; assay: T cell activation, peptide-loaded DC2.4 co-culture, IL-2 ELISA (7PPG2); assay type: cell-based, murine; details: DC2.4 cells loaded with various peptide concentrations 2-3 h, 24 h co-culture
Method: as §2, §3, §4

p15E-pulsed splenocytes = assay: In vivo killing assay of peptide-pulsed donor splenocytes; set-up: species or system C57BL/6 mice; details: day 36 spleens, 24 h after i.v. injection of about 1:1 CFSE-dyed p15E-pulsed and violet-dyed OVA-pulsed splenocytes; amphiphile vaccines days 0, 14, 28; N=3 mice/group
Method: as §1
Experimental mice were vaccinated as described above. A separate group of age-matched female C57BL/6 donor mice were euthanized and spleens removed. In a sterile hood, single cell suspensions were created by mashing spleens through 70 μm mesh filters. Red blood cells were lysed using ACK lysis buffer (Thermo), and cells were washed twice with PBS. […] 24 hours later, experimental mice were euthanized and splenocytes analyzed to compare ratios of CFSE-dyed to Violet-dyed cells. Samples were run on a Cytoflex and data analyzed in FlowJo v10.

“7ELG1 TCR, recombinant soluble (from UniProt P01849)” was tested, and the Kd [1] was 39 µM.

With “7PPG2 TCR, recombinant soluble (from UniProt P01849)” the Kd [1] was 23 µM.

“7PPG2-mim6 mimotope () presented by H-2K^b, refolded pMHC (from UniProt P61769 21-119)” gave a Kd [2] greater than 100 µM and a Kd [3] of 19 µM.

Work on “7PPG3 TCR, recombinant soluble (from UniProt P01849)” yielded a Kd [1] of 20 µM.

“7PPG4-mim2 mimotope () presented by H-2K^b, refolded pMHC (from UniProt P61769 21-119)” gave a Kd [3] of 42 µM.

For “KSPWFITL [7PPG4-mim2, p15E mimotope identified from yeast display pMHC library selection with 7PPG4 TCR]”, the “affinity for 7PPG4 relative to p15E” value (7PPG4 TCR; SPR, 5 μM compared to 26 μM) was “five-fold higher affinity”, the “CD8^+ T cell reactivity to 7PPG2-mim6 stimulation (ICS)” value (CD8^+ T cells; amphiphile vaccine + lipo-CpG, days 21 and 35, Supplementary Figure 7A) was “some cross reactivity to 7PPG2-mim6 stimulation” and the “CD8^+ T cells reacting to 7PPG4-mim2 stimulation (ICS)” value (CD8^+ T cells; day 21, 5 nmol amphiphile vaccine + lipo-CpG, Supplementary Figure 7B, N=5) was 40 % of CD8^+ T cells. For the same substance, the “CD8^+ T cell reactivity to p15E stimulation (ICS)” value (CD8^+ T cells; day 35, 5 nmol amphiphile vaccine + 1.24 nmol lipo-CpG, boosts days 14 and 28, N=5) was 40%, the Autoreactivity in vivo (B16F10 melanoma cells; all in vivo studies with the amphiphile vaccine) was “did not show evidence of deleterious autoreactivity” and the “T cell activation (IL-2 secretion)” value [4] was “much more potently than p15E”.

With “KSPWFTTL [p15E, previously identified MLVenv peptide presented by the class I MHC H-2K^b]” the “T cell activation (IL-2 secretion)” value [5] was “activated in a dose-dependent manner”, the “Fraction of p15E-pulsed cells remaining” value (p15E-pulsed splenocytes) was “little difference in fraction of p15E-pulsed cells compared to the control group” and the “CD8^+ T cell reactivity to p15E stimulation (ICS)” value (CD8^+ T cells; days 21 and 35, 5 nmol amphiphile vaccine + lipo-CpG, compared with adjuvant-only control) was “did not show any significant reactivity compared to the control group”. The “Survival after tumor challenge” value (B16F10 melanoma cells; first experiment, 1×10^5 B16F10 cells six weeks after prime, amphiphile vaccines, euthanized at tumor area >100 mm^2, N=5, Figure 7F) was “identical survival curves” and the “T cell activation (IL-2 secretion)” value [4] was “activated in a dose-dependent manner”.

In the case of SIINFEKL [OVA], the “Fraction of p15E-pulsed cells remaining” value (p15E-pulsed splenocytes) is reported as “high fraction of p15E-pulsed cells remaining” and the “CD8^+ T cell reactivity to OVA (ICS)” value (CD8^+ T cells; killing-assay study, day 35, OVA amphiphile vaccine day 0, boosts days 14 and 28, N=3 mice/group, Supplementary Figure 6B) is reported as 20%.

In the case of “SIYRYYGL [2C TCR cognate antigen, control peptide]”, the “T cell activation (IL-2 secretion)” value [5] is reported as “no activation” and the “T cell activation (IL-2 secretion)” value [4] is reported as “no activation”.

With “VSPWFNTL [7PPG2-mim6, p15E mimotope identified from yeast display pMHC library selection with 7PPG2 TCR]” the “T cell activation (IL-2 secretion)” value [5] was “much more potently than p15E”, the Kd (7PPG4 TCR; mimotope or p15E peptide displayed by H-2K^b as analyte, immobilized TCR, 25°C, steady state) was greater than 100 µM and the “CD8^+ T cell reactivity to 7PPG4-mim2 stimulation (ICS)” value (CD8^+ T cells; amphiphile vaccine + lipo-CpG, days 21 and 35, Supplementary Figure 7B) was “minimal reactivity to 7PPG4-mim2”.
